Experimental data taken from article PMC11314561, “Design and Synthesis of Novel Aminoindazole-pyrrolo[2,3-b]pyridine Inhibitors of IKKα That Selectively Perturb Cellular Non-Canonical NF-κB Signalling” (Molecules, 2024).

Test system: p52/RelB nuclear translocation in PC-3M cells
Assay: LTα1β2-stimulated p52/RelB nuclear translocation, Western blotting of crude nuclear extracts
Format: cell-based
Settings: Homo sapiens, LTα1β2 4 h
Protocol: Associated with the IKKα-mediated activation of the non-canonical NF-κB pathway is the downstream liberation and the nuclear translocation of p52/RelB-containing NF-κB complexes. The extent of the nuclear translocation of these proteins was also assessed by Western blotting of crude nuclear extracts prepared from PC-3M cells. […] Related to the markers of TNFα-stimulated canonical NF-κB signalling, 6g [SU1349] had no impact on any of TNFα-stimulated IκBα degradation, phosphorylation of p65 (Ser536), or p105 (Ser932) phosphorylation in these cells (Figure 15C).
For examination of potential effects of compound on non-canonical NF-κB signalling, cells were exposed to vehicle (DMSO; 0.03–0.05% (v/v)) or increasing concentrations of compounds (0.01–30 µM) for 1 h prior to treatment with FCS (10% (v/v); for U2OS cells) or LTα1β2 (20 ng/mL; for PC-3M cells) for 4 h. The status of p-p100 (Ser 866/870) in whole-cell extracts prepared from 12-well plates was assessed by Western blotting, as described in McKenzie et al.. […] Thereafter, p52 and RelB status in crude nuclear extracts normalised for protein amounts were assessed by Western blotting.
Each figure/panel of Western blotting data represents one of at least three separate experiments. […] Data were normalised to fold expression/inhibition relative to ‘agonist plus vehicle’ treatment and expressed as mean ± s.e.m. […]

- IC50: 150 nM
Compound: Nc1n[nH]c2ccc(-c3ccnc4[nH]c(-c5ccnc(OCc6ccccc6)c5)cc34)cc12 [Compound 6g [SU1349]]
